Entries after “also recorded” stand apart in the source; their conditions may differ.
Legend:
[1] = system: HK81 (AlkB+) E. coli cells; assay: REAP mutagenesis assay, HK81 cells; assay type: cell-based
From the text: (§1) All E. coli strains used in this work contain the F′ episome, which enables infection by M13 phage. GW5100 strain was used for large scale preparation of M13 phage DNA, SCS 110 (JM110, end Al) was used for amplification of progeny phage post-electroporation, and NR9050 was the strain of choice for double agar plating with X-GAL for blue-clear detection of plaques. The E. coli strains used to replicate lesion-containing phage were HK81 (as AB1157, but nalA) and HK82 (as AB1157, but nalA alkB22; AlkB-deficient).
(§2) Lesion-containing genomes were mixed with the competitor genome (80:20 molar ratio) and electroporated in triplicate into 100 μl competent cells using a 2 mm-gap cuvette and a BTX electroporator set to 2.5 kV and 125 a Typical pulse lengths were 4.9 msec. The cells were immediately transferred to 10 ml LB and an aliquot was immediately plated using the agar overlay method to verify that a minimum of 10^5 independent initial electroporation events occurred in 10 ml of culture. Incubation for 6 h at 37° C. with aeration generated the progeny phage, which were then reamplified in SCS 110 cells (10 μl overnight culture and 100 μl of the 6 h supernatant in 10 ml LB) to dilute out the residual genomic DNA used for electroporation. Single-stranded M13 progeny phage DNA was isolated from 1.4 ml of supernatant using a Q1Aprep Spin M13 Kit with final DNA suspension in 100 μl elution buffer. CRAB forward and reverse primers were used to amplify the region of interest from 15 μl per Q1Aprep elution sample in a total volume of 25 μl containing 50 pmol of each primer, 1×Pfu Turbo buffer, 1.25 U Pfu Turbo DNA polymerase and […] of each dNTP. The PCR program used 30 cycles of 67° C. (1 min) annealing and 72° C. (1 min) extensions. After purification using QIAQUICK PCR purification columns, 4 μl of the PCR product were treated with BbsI (1.5 U) and SAP (0.3 U) in a total volume of 6 μl by incubating at 37° C. for 4 h. After phosphatase inactivation, (80° C. for 5 min), the 5′ ends were then radiolabeled using [γ-^32P]-ATP (1.66 pmol, 10 μCi/μl, 6000 Ci/mmol), cold ATP (16 pmol) and 5 U of OPTIKINASE at 37° C. for 30 min. Following the kinase inactivation at 65° C. for 20 min, the labeled product was then trimmed by HaeIII (10 U in a final volume of 10 μl) at 37° C. for 2 h, and diluted 1:1 in formamide loading dye. PAGE separation on a 20% denaturing gel, run for about 3.5 h at 550 V, until the xylene cyanol dye migrated 10.5 cm, yielded two bands for each sample: an 18-mer originating from the lesion-containing genome and a 21-mer originating from the competitor genome. The gels were visualized on a phosphorimager (Typhoon 7000, GE Healthcare Life Sciences); the band intensities were quantified using IMAGEJ software (National Institutes of Health). Lesion bypass was calculated as the percentage ratio of the intensity of the 18-mer band (lesion signal) to the intensity of the 21-mer band (competitor signal).
(§3) The REAP assay methodology is identical to the CRAB assay except for the PCR primers, which amplified only the progeny DNA originating from the lesion-carrying genomes. Following electrophoresis, the 18-mer bands were excised from the gel, crushed and extracted with 200 μl water. After desalting with SEPHADEX G-50 Fine resin spin columns, the samples were lyophilized to dryness, resuspended in 5 μl containing 1 μg P1 Nuclease in 30 mM sodium acetate (pH 5.3) and 10 mM zinc chloride, and incubated at 50° C. for 1 h. One μl of each sample was then spotted onto PEI-TLC plates and separated using 200 ml of a saturated solution of (NH4)2HPO4 adjusted to pH 5.8. After 24 h of development, the TLC plates were air-dried and quantified using phosphorimagery. […]

[2] = system: HK81 (AlkB+) E. coli cells; assay type: cell-based
Experimental: (A) A 16mer oligonucleotide containing KP1212 (SEQ ID NO: 1) (or controls) at a specific site was chemically synthesized and ligated into the genome of an M13 bacteriophage. (B) The KP1212-containing M13 genomes were replicated within E. coli cells. Progeny were analyzed to characterize the amount and the type of nucleic acid base placed opposite the lesion during replication. The relative reduction in lesion vs. non-lesion competitor progeny formation was used as an estimate of the extent to which KP1212 and m3C inhibited DNA replication. (C) The KP1212-containing M13 genomes were used as templates for in vitro polymerase extension assays, carried out at 72° C., using the high-fidelity DNA polymerase PfuTurbo. (D) Bypass efficiency (CRAB assay) of KP1212, m3C, C in HK81 (AlkB^+) and HK82 (AlkB^−) E. coli cells. m3C and undamaged C were used as controls. Genomes were made and normalized to one another before being combined with a competitor genome. Each mixture was transformed into the corresponding cell strain in triplicate, and bypass efficiency was calculated by using the undamaged C genome as 100% bypass, with error bars representing one standard deviation. (E) Mutagenesis (REAP assay) of KP1212, m3C, and C in HK82 (AlkB^−) E. coli cells. m3C, undamaged C, and an approximately equimolar mixture of genomes carrying unmodified G/A/T/C bases at the site of inquiry (denoted as GATC) were used as controls. Genomes containing the lesions of interest were transfected into E. coli in triplicate.
as §1

[3] = system: HK82SOS; assay: CRAB lesion bypass assay, HK82SOS cells; assay type: cell-based, E. coli; settings: percentage relative to unmodified control genome
From the text: as §1
as §2, with “After purification using QIAQUICK PCR purification columns, 4 μl of the PCR product were treated with BbsI (1.5 U) and SAP (0.3 U) in a total volume of 6 μl by incubating at 37° C. for 4 h. After phosphatase inactivation, (80° C. for 5 min), the 5′ ends were then radiolabeled using [γ-^32P]-ATP (1.66 pmol, 10 μCi/μl, 6000 Ci/mmol), cold ATP (16 pmol) and 5 U of OPTIKINASE at 37° C. for 30 min. Following the kinase inactivation at 65° C. for 20 min, the labeled product was then trimmed by HaeIII (10 U in a final volume of 10 μl) at 37° C. for 2 h, and diluted 1:1 in formamide loading dye. PAGE separation on a 20% denaturing gel, run for about 3.5 h at 550 V, until the xylene cyanol dye migrated 10.5 cm, yielded two bands for each sample: an 18-mer originating from the lesion-containing genome and a 21-mer originating from the competitor genome.” left out, “signal). […]” for “signal).”

[4] = system: HK82 (AlkB−) E. coli cells; assay type: cell-based
[5] = system: HK82 (AlkB−) E. coli cells; assay type: cell-based; remark: listed apart in the source
[6] = system: HK82-SOS; assay: REAP mutagenesis assay, HK82-SOS cells; assay type: cell-based, E. coli; settings: (b) HK82-SOS
From the text: as §1, §2, §3

[7] = Variable temperature 1H NMR, tautomerism in DMF-d7; assay type: physicochemical; settings: DMF-d7, 20 to −60° C.
Experimental: At 20° C., exchangeable protons on the base moiety are observed at 7.58 ppm and 4.14 ppm (FIG. 10). At −60° C., exchangeable protons on the base moiety are observed at 8.70 ppm, 8.08 ppm, and 4.68 ppm (FIG. 11). Protons with a chemical shift of 8.70, 8.08, and 7.58 ppm likely correspond to enolic, amido, or imino protons, while protons with a chemical shift of 4.68 and 4.14 ppm likely correspond to amino protons. The expected chemical shifts for enolic, amido, and imino protons are relatively close, and thus these species cannot be assigned at this stage. […] Only the existence of multiple tautomeric species would explain the presence of three exchangeable protons resonances. […] Based on their chemical structures, the keto-amino tautomer will pair with guanine and the keto-imino/enol-imino tautomers can pair with adenine.
All NMR experiments were performed on Varian 500 MHz NMR spectrometers. The deuterated solvent DMF-d7 was from Cambridge Isotope Laboratories, Andover, Mass., USA. 5-Aza-5,6-dihydro-2′-deoxycytidine (KP1212) nucleoside was from Berry & Associates Inc., Dexter, Mich., USA. The NMR sample was prepared by dissolving 10 mg of KP1212 nucleoside in 1.0 ml DMF-d7 (final concentration ˜44 mM). ^1H NMR spectra were reported in parts per million (ppm) and were referenced to the signals for DMF-d7 (8.03 ppm). ^13C NMR spectra were referenced to the signals for DMF-d7 (163.15 ppm).
FIG. 14A depicts the structures of all five possible tautomers (1 to 5) of KP1212, among which the three active protons on the nucleobase shift among the 02, N3, N4 and N5 positions. […] Before assigning the three active protons on the nucleobase moiety, all non-exchangeable protons in KP1212 and the two hydroxyl protons on the 3′ and 5′ positions were identified by carrying out 1D (^1H and ^13C) and 2D (COSY, HSQC, and HMBC) NMR experiments. The NMR signals of the three active protons in the base portion of KP1212 were studied at different temperatures. […] When the temperature was decreased to −50° C., the three broad peaks resolved into six distinct proton resonances (FIG. 14B, denoted as peaks i-vi), which could be assigned to imino (designated as e and n in FIGS. 14A to 14C), amido (designated as g and m), enolic (designated as c and d) or amino (designated as a, b, f, h, i, j, k, l, and o) protons.
At −50° C. six distinct proton resonances (FIG. 14B, i to vi) were observed, attributable to protons bound either to nitrogen or to oxygen atom (for only the base portion of the KP1212 molecule). Integration of the six broad peaks permitted estimation of the relative ratios of the five tautomeric species that exist in solution (FIG. 14A).
The NMR data also allowed the determination of the relative ratios of the tautomeric species present in the DMF solution at −50° C. (FIGS. 14B and 14C). Several peaks in the NMR spectrum partially overlapped (e.g., iv and v), so the raw data were reconstructed using a least squares fit algorithm (FIG. 16). The reconstructed peaks from the simulation were integrated, yielding an estimate of the relative amounts of each of the proton resonances in the spectrum. […] 2) Based on the peak assignments from part 1), a system of linear equations was set up using the relative amounts of tautomers as unknown variables (FIG. 14D). Each NMR peak provided a linear equation whereby the peak area should be equal to the sum of all tautomers (as relative amounts) containing protons that contribute to that peak. The solutions of these equations yielded the relative ratios of the tautomeric species present in DMF at −50° C. (FIG. 14D).

SMILES | Mutagenicity, Average % C [1] [%] | Mutagenicity, Average % A ([1]; (c) HK81) [%] | Mutagenicity, Average % G ([1]; (c) HK81) [%] | Mutagenicity, Average % T ([1]; (c) HK81) [%] | Polymerase bypass efficiency, Avg. ([2]; HK81, percentage relative to unmodified control genome) [%] | toxicity to replication ([2]; cells that expressed the repair enzyme AlkB) | Polymerase bypass efficiency, Avg. [3] [%] | replication block / toxicity to replication ([4]; E. coli (FIG. 18D), for m3C cells that lack AlkB) | Polymerase bypass efficiency, Avg. ([4]; HK82, percentage relative to unmodified control genome, triplicate) [%] | Mutagenicity, Average % A ([5]; (a) HK82) [%] | Mutagenicity, Average % C ([5]; (a) HK82) [%] | Mutagenicity, Average % G ([5]; (a) HK82) [%] | Mutagenicity, Average % T ([5]; (a) HK82) [%] | base pairing / mutagenicity (in words) ([5]; FIGS. 18C, 18E, m3C in repair deficient cells) | Mutagenicity, Average % A [6] [%] | Mutagenicity, Average % C [6] [%] | Mutagenicity, Average % G [6] [%] | Mutagenicity, Average % T [6] [%] | tautomerism by Variable Temperature NMR [7]
Cn1c(N)ccnc1=O [m3C, 3-methylcytosine] | 100.0 | 0.0 | 0.0 | 0.0 | 113 | toxicity was abolished | 45 | very toxic to replication | 14 | 30.6 | 13.2 | 1.3 | 54.9 | mispair with both A and T | 33.6 | 5.7 | 3.2 | 57.5 | –
NC1=NC(=O)N(C2CC(O)C(CO)O2)CC1 (centres unmarked) [DHdC] | – | – | – | – | – | – | – | – | – | – | – | – | – | – | – | – | – | – | shows multiple tautomerism; also recorded: multiple tautomers
Nc1ncn([C@H]2C[C@H](O)[C@@H](CO)O2)c(=O)n1 [5-Aza-dC, 5-aza-2′-deoxycytidine] | – | – | – | – | – | – | – | – | – | – | – | – | – | – | – | – | – | – | does not show multiple tautomerism; also recorded: single tautomerism

— US9283242B2, “Uses of dihydro bases” (priority 2013, dated 2016)
